PubChem BioAssay (NCI)
Values joined by “and” are separate entries in the source; they are usually repeats but may differ in a detail not shown here. Equal values may be shown once.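 Cultured in 96-well plates, cells were exposed to test compound for 48 hours across five concentrations. Abbreviation: GI50, concentration required for 50% inhibition of growth. TGI is the concentration that stops growth completely.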

System: SN12K1 renal
Experiment: NCI anticancer screen, dose series, 48 h

| SMILES | TGI | GI50 [µM] |
| --- | --- | --- |
| O=C1NC2C(=CC(O)C(O)C2O)c2cc3c(cc21)OCO3 (centres undefined) | 1.8 µM |  |
| COc1cc2c(c(OC)c1OC)-c1ccc(OC)c(=O)cc1[C@@H](NC(C)=O)CC2 | 0.00625 µM and < 0.0625 µM | 0.00298 |
| CC1=CCCC2C1(C)CCC(C)C2(C)Cc1cc(O)ccc1O (centres undefined) | 13.5 µM |  |
